Reference: patent publication US11040082B2, “Compositions and methods for treating colorectal cancer” (Georgia State University Research Foundation, Inc., priority 2014, dated 2021)

Tests used:
[1] = system: colon adenocarcinoma; conditions: cited from earlier work
[2] = system: tumor growth; conditions: several studies; cited from earlier work
[3] = system: myeloid leukemia C1498 cells; conditions: in vivo; cited from earlier work
[4] = system: DSS-induced colitis; conditions: previous studies; cited from earlier work
[5] = system: AOM/DSS-induced colon tumorigenesis; assay: AOM/DSS-induced colitis-associated cancer (CAC) model, WT mice, with or without KPV; format: in vivo, mouse
Protocol: (§1) Colonic tumor model: Colon cancer was induced as previously described with some modifications (Greten et al., Cell 118:285-96, 2004). Mice were intraperitoneally injected with AOM (Sigma-Aldrich, St. Louis, Mo.) diluted in PBS (10 mg/kg) and maintained on a regular diet and water for 5 days. The mice were then subjected to two cycles of DSS treatment (MP Biomedicals, Solon, Ohio, USA), with each cycle consisting of 2.5% DSS for 7 days followed by a 14-day recovery period with regular water. Mice were then sacrificed and their colons isolated for further experimentation. Colonic tumors were counted and measured using a dissecting microscope. The total sum of the area of each colon covered by tumor tissue was expressed as the tumor burden index.
(§2) In experiments designed to test the efficacy of KPV (Biopeptide Co. Inc., San Diego, Calif.), the above protocol was slightly modified. Five days after AOM injections (10 mg/kg to WT mice or 15 mg/kg to PepT1-KO mice), the WT and PepT1-KO mice were given 3% DSS with or without KPV for seven days. Following the 7-day treatment, the mice were given normal drinking water for 14 days, then 2.5% DSS (WT) or 3% DSS (PepT1-KO mice) with or without KPV for seven days. Following the 7-day treatment, the mice were given normal drinking water for 14 days. The KPV-treated group received 100 μM KPV in their drinking water along with the DSS during both DSS cycles.
H&E Staining of Colonic Tissue: Mouse colons were fixed in 10%-buffered formalin for 24 hours at room temperature and then embedded in paraffin. Tissues were sectioned at 5-μm thickness and stained with hematoxylin & eosin (H&E) using standard protocols. Images were acquired using an Olympus microscope equipped with a DP-23 digital camera.
Immunohistochemistry: Mouse colonic tissues were fixed in formalin and paraffin-embedded. For Ki67, β-catenin and PepT1 staining, sections were deparaffinized. Slides were incubated in sodium citrate buffer (pH 6.0) and cooked in a pressure cooker for 10 minutes for antigen retrieval. Sections were then blocked with 5% goat serum in TBS followed by incubation for one hour with anti-Ki67 (1:100, Vector Laboratories, Burlingame, Calif.), anti-β-catenin (1:1000, Cell Signaling, Danvers, Mass.) or anti-mPepT1 at 37° C. After washing with TBS, sections were treated with appropriate biotinylated secondary antibodies for 30 minutes at 37° C., and color development was performed using the Vectastain ABC kit (Vector Laboratories). Sections were then counterstained with hematoxylin, dehydrated, and then coverslipped. Images were acquired using an Olympus microscope equipped with DP-23 Digital camera. Ki67-positive cells were counted per crypt.
Therefore, we hypothesized that KPV may help prevent colon tumorigenesis in the AOM/DSS-induced CAC model. To test this hypothesis, WT mice were treated with AOM/DSS or AOM/DSS+KPV (during the DSS cycles). […] In order to investigate any putative protective effect of KPV administration in pepT1-KO mice, the colitis-associated cancer protocol was slightly modified based on the relatively low penetrance of the disease in pepT1-deficient animals (FIG. 3). AOM concentration was increased to 15 mg/kg and DSS was increased to 3% in order to favor tumor development. […] Upregulation of colonic PepT1 may lead to increased interactions between bacterial peptides and intracellular innate immune receptors, including NOD receptors, thus triggering downstream activation of proinflammatory signaling pathways (Dalmasso et. al., Gastroenterology 141:1334-45, 2011; Laroui et al., J. Biol. Chem. 286:31003-13, 2011). Furthermore, previous studies have shown that bacteria are required for the initiation of colonic inflammation and subsequent dysplasia and tumorigenesis (Itzkowitz and Yio, Am. J. Physiol. Gastrointest. Liver Physiol. 287:G7-17, 2004). […]

[6] = system: Caco2-BBE and Jurkat cells; conditions: stimulation with pro-inflammatory cytokines, co-treated with KPV; cited from earlier work
[7] = system: AOM/DSS-induced colon tumorigenesis in PepT1-KO mice; assay: AOM/DSS-induced colitis-associated cancer model, PepT1-KO mice, with or without KPV; format: in vivo, mouse; conditions: AOM 15 mg/kg, 3% DSS, + KPV vs AOM/DSS only
Protocol: as §1, §2
Therefore, we hypothesized that KPV may help prevent colon tumorigenesis in the AOM/DSS-induced CAC model. To test this hypothesis, WT mice were treated with AOM/DSS or AOM/DSS+KPV (during the DSS cycles). […] In order to investigate any putative protective effect of KPV administration in pepT1-KO mice, the colitis-associated cancer protocol was slightly modified based on the relatively low penetrance of the disease in pepT1-deficient animals (FIG. 3). AOM concentration was increased to 15 mg/kg and DSS was increased to 3% in order to favor tumor development. […] Upregulation of colonic PepT1 may lead to increased interactions between bacterial peptides and intracellular innate immune receptors, including NOD receptors, thus triggering downstream activation of proinflammatory signaling pathways (Dalmasso et. al., Gastroenterology 141:1334-45, 2011; Laroui et al., J. Biol. Chem. 286:31003-13, 2011). Furthermore, previous studies have shown that bacteria are required for the initiation of colonic inflammation and subsequent dysplasia and tumorigenesis (Itzkowitz and Yio, Am. J. Physiol. Gastrointest. Liver Physiol. 287:G7-17, 2004). Future studies are warranted to assess the role of PepT1-bacterial interactions in these processes, and whether such interactions contribute to the progression of CAC.

[8] = target: T1, PepT1 (Homo sapiens, UniProt P46059); conditions: in vitro, Caco-2/BBE cells; cited from earlier work
T1 construct: endogenous in cells; host or cells: Caco-2/BBE cells
T1 sequence (P46059 1-708): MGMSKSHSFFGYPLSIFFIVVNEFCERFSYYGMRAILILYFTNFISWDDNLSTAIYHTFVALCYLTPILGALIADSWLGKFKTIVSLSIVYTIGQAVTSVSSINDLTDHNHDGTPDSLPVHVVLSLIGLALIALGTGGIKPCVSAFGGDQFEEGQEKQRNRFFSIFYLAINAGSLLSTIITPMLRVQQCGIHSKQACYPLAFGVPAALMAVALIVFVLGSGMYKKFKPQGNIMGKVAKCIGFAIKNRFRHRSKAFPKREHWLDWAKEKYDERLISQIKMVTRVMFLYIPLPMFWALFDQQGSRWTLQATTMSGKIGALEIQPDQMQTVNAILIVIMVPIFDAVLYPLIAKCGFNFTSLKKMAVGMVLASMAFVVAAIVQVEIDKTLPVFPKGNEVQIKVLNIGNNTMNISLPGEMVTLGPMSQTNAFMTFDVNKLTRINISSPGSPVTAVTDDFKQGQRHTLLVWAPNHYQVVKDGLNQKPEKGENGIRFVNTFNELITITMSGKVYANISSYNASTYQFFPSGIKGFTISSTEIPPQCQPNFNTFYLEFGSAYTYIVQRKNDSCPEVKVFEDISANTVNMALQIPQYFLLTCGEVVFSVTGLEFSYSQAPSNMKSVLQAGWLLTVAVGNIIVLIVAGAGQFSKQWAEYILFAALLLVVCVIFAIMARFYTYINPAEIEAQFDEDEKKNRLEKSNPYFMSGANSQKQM

[9] = system: PepT1 expression and colitis in IL-10-/- mice; conditions: compared to vehicle-treated; cited from earlier work
[10] = system: tumorigenesis in IL-10-deficient mice; conditions: even after colitis had developed; cited from earlier work
[11] = AOM/DSS + 100 μM KPV in drinking water during both DSS cycles vs AOM/DSS only
[12] = AOM/DSS + 100 μM KPV vs AOM/DSS only

For `CC(C)C[C@H](NC(=O)[C@@H](O)[C@H](N)Cc1ccccc1)C(=O)O` [bestatin], the “growth of colon adenocarcinoma” value [1] is listed as “inhibits the growth of colon adenocarcinoma”, the cell proliferation [2] is listed as “decreases cell proliferation” and the tumor growth [2] is listed as “ameliorates tumor growth”. For the same molecule, the “growth of myeloid leukemia C1498 cells” value [3] was “decreases the growth”.

In the case of Lys-Pro-Val [KPV], the “inflammation and DSS-induced colitis” value [4] is listed as “decreases inflammation and attenuates DSS-induced colitis”, the “colon tumorigenesis: overall colonic tumor burden” value [5, 11] is listed as “drastic decreases” and the “colon tumorigenesis: tumor numbers” value [5, 11] is listed as “drastic decreases”. The “colon tumorigenesis: tumor sizes” value [5, 11] was “drastic decreases”, the “aberrant crypt foci (H&E-stained colonic sections)” value [5, 12] was “fewer aberrant crypt foci” and the “body weight loss during DSS treatment” value [5, 12] was “lost similar amounts of weight”. The “cellular infiltration (H&E-stained colonic sections)” value [5, 12] was “decreased cellular infiltration”, the “epithelial cell proliferation (Ki67+ cells/crypt)” value [5, 12] was “less epithelial cell proliferation” and the “inflammation (H&E-stained colonic sections)” value [5, 12] was “decreased inflammation”. For the same molecule, the NF-κB activation [6] was “attenuated NF-κB activation”, the pro-inflammatory cytokine production [6] was “decreased pro-inflammatory cytokine production” and the protection from tumorigenesis [7] was “not protected from tumorigenesis”. For the same molecule, the tumor burden [7] was “remained unchanged”, the tumor numbers [7] was “remained unchanged” and the tumor sizes [7] was “remained unchanged”. For the same molecule, the “transport via PepT1” value [8] was “transported via PepT1”.

In the case of Lactobacillus plantarum, the “PepT1 expression and activity” value [9] is listed as “reduced PepT1 expression and activity” and the colitis [9] is listed as “attenuated colitis”.

B1: IL-10: exogenous anti-inflammatory cytokine IL-10 administered to IL-10-deficient mice (protein, UniProt P18893 19-178, looked up)
Interleukin-10: SRGQYSREDNNCTHFPVGQSHMLLELRTAFSQVKTFFQTKDQLDNILLTDSLMQDFKGYLGCQALSEMIQFYLVEVMPQAEKHGPEIKEHLNSLGEKLKTLRMRLRRCHRFLPCENKSKAVEQVKSDFNKLQDQGVYKAMNEFDIFINCIEAYMMIKMKS
In the case of B1, the tumorigenesis [10] is given as “tumorigenesis was decreased”.
